Experiments:
D(2) dopamine receptor [1] = biological target: T1, D(2) dopamine receptor (Homo sapiens, UniProt P14416); assay: Displacement of [3H]spiperone from human D2long receptor stably expressed in CHO cell membranes by competitive binding assay
D(2) dopamine receptor [2] = biological target: T1, D(2) dopamine receptor; assay: Displacement of [3H]spiperone from human D2short receptor stably expressed in CHO cell membranes by competitive binding assay
D(3) dopamine receptor = D(3) dopamine receptor (Homo sapiens, UniProt P35462); assay: Displacement of [3H]spiperone from human D3 receptor stably expressed in CHO cell membranes by competitive binding assay
D(4) dopamine receptor = biological target: T2, D(4) dopamine receptor (Homo sapiens, UniProt P21917); assay: Displacement of [3H]spiperone from human D4.4 receptor stably expressed in CHO cell membranes by competitive binding assay
T2 sequence (P21917 whole entry): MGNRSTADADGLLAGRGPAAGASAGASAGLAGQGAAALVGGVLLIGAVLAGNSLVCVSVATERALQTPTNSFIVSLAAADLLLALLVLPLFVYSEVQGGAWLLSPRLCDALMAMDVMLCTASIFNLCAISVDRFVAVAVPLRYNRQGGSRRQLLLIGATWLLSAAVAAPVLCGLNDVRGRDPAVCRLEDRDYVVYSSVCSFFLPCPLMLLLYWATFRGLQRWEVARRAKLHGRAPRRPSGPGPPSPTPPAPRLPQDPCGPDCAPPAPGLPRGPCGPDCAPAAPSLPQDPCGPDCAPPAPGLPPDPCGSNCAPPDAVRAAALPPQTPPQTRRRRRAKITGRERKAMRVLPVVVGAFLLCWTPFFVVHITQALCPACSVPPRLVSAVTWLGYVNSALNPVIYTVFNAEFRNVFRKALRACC

D(1A) dopamine receptor = D(1A) dopamine receptor (Sus scrofa, UniProt P50130); assay: Displacement of [3H]SCH23390 from porcine striatal membranes D1 receptor by competitive binding assay
CHO [3] = assay: Selectivity ratio of Ki for human D4.4 receptor stably expressed in CHO cell membranes to Ki for human D3 receptor stably expressed in CHO cell membranes; assay type: cell-based
CHO [4] = assay: Selectivity ratio of Ki for human D3 receptor stably expressed in CHO cell membranes to Ki for human D4.4 receptor stably expressed in CHO cell membranes; assay type: cell-based

Chain of D(3) dopamine receptor (P35462 whole entry): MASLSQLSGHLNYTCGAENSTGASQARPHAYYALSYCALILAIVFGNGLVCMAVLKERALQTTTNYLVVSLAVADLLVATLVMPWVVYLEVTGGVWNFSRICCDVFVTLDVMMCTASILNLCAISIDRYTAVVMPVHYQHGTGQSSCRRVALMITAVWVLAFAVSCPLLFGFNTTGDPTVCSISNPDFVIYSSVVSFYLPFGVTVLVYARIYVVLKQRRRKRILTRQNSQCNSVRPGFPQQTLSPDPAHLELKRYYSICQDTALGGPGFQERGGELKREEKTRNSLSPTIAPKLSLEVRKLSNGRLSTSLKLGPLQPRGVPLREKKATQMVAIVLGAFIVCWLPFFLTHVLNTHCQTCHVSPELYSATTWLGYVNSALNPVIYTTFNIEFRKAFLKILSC
Chain of D(1A) dopamine receptor (P50130 whole entry): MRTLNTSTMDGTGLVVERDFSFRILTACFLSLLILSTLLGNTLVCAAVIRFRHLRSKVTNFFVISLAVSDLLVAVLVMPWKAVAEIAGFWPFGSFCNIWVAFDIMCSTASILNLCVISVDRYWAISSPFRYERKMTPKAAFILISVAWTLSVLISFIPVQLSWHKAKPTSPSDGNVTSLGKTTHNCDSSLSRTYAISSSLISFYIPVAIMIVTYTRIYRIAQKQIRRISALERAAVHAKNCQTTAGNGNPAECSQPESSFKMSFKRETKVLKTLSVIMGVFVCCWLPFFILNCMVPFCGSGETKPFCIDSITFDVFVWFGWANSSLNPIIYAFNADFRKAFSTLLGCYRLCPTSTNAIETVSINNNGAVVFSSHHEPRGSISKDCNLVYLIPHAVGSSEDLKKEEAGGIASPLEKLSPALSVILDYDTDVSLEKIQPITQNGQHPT
T1 sequence (P14416 whole entry): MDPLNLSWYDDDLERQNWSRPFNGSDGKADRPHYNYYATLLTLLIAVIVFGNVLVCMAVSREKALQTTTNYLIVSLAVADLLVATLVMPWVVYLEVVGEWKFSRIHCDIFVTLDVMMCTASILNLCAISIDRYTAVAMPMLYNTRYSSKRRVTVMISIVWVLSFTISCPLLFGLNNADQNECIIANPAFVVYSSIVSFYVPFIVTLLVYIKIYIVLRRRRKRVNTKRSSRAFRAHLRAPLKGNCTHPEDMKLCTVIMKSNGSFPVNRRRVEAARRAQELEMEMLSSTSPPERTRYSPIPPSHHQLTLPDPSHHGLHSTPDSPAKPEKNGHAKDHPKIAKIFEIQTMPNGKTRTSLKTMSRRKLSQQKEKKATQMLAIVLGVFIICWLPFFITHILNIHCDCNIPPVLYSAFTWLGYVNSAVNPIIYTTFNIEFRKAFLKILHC

Structure (SMILES)	Ki (D(2) dopamine receptor [1]) [nM]	Ki (D(2) dopamine receptor [2]) [nM]	Ki (D(3) dopamine receptor) [nM]	Ki (D(4) dopamine receptor) [nM]	Ki (D(1A) dopamine receptor) [nM]	Ratio Ki (CHO [3])	Ratio Ki (CHO [4])
O=C(CCCCCCCCCCCCCCCCCCCCC(=O)OC1(c2ccc(Cl)cc2)CCN(CCCC(=O)c2ccc(F)cc2)CC1)OC1(c2ccc(Cl)cc2)CCN(CCCC(=O)c2ccc(F)cc2)CC1	310	280	500	850	1500	–	–
O=C(CCCCCCCC(=O)OC1(c2ccc(Cl)cc2)CCN(CCCC(=O)c2ccc(F)cc2)CC1)OC1(c2ccc(Cl)cc2)CCN(CCCC(=O)c2ccc(F)cc2)CC1	5.6	6.5	9.1	520	1200	–	–
O=C(CCCC(=O)OC1(c2ccc(Cl)cc2)CCN(CCCC(=O)c2ccc(F)cc2)CC1)OC1(c2ccc(Cl)cc2)CCN(CCCC(=O)c2ccc(F)cc2)CC1	12	12	31	33	220	–	–
Cc1ccc(C(=O)OC2(c3ccc(Cl)cc3)CCN(CCCC(=O)c3ccc(F)cc3)CC2)cc1	56	47	270	130	550	–	–
CN(CCC(=O)OC1(c2ccc(Cl)cc2)CCN(CCCC(=O)c2ccc(F)cc2)CC1)CCN(C)CCC(=O)OC1(c2ccc(Cl)cc2)CCN(CCCC(=O)c2ccc(F)cc2)CC1	3.2	2.2	47	29	260	–	–
O=C(CCCCCCCCCCCCC(=O)OC1(c2ccc(Cl)cc2)CCN(CCCC(=O)c2ccc(F)cc2)CC1)OC1(c2ccc(Cl)cc2)CCN(CCCC(=O)c2ccc(F)cc2)CC1	120	62	160	490	1400	–	–
O=C(CCCCC(=O)OC1(c2ccc(Cl)cc2)CCN(CCCC(=O)c2ccc(F)cc2)CC1)OC1(c2ccc(Cl)cc2)CCN(CCCC(=O)c2ccc(F)cc2)CC1	3	2.3	11	41	220	2	–
O=C(CCCCCC(=O)OC1(c2ccc(Cl)cc2)CCN(CCCC(=O)c2ccc(F)cc2)CC1)OC1(c2ccc(Cl)cc2)CCN(CCCC(=O)c2ccc(F)cc2)CC1	3.3	2.6	11	360	280	–	–
O=C(CCCCCCCCC(=O)OC1(c2ccc(Cl)cc2)CCN(CCCC(=O)c2ccc(F)cc2)CC1)OC1(c2ccc(Cl)cc2)CCN(CCCC(=O)c2ccc(F)cc2)CC1	15	31	39	490	1400	–	–
CCCCCCCCCC(=O)OC1(c2ccc(Cl)cc2)CCN(CCCC(=O)c2ccc(F)cc2)CC1 [HALOPERIDOL DECANOATE]	1.8	0.46	3.5	5.8	140	–	–
O=C(CCCCCCC(=O)OC1(c2ccc(Cl)cc2)CCN(CCCC(=O)c2ccc(F)cc2)CC1)OC1(c2ccc(Cl)cc2)CCN(CCCC(=O)c2ccc(F)cc2)CC1	2.5	2.9	6.4	300	920	–	–
O=C(CCc1cn(CCOCCOCCOCCOCCn2cc(CCC(=O)OC3(c4ccc(Cl)cc4)CCN(CCCC(=O)c4ccc(F)cc4)CC3)nn2)nn1)OC1(c2ccc(Cl)cc2)CCN(CCCC(=O)c2ccc(F)cc2)CC1	1.6	3.8	19	46	150	–	–
CN(C)CCC(=O)OC1(c2ccc(Cl)cc2)CCN(CCCC(=O)c2ccc(F)cc2)CC1	1.9	1.8	30	8.7	200	–	–
O=C(CCCCCCCCCCC(=O)OC1(c2ccc(Cl)cc2)CCN(CCCC(=O)c2ccc(F)cc2)CC1)OC1(c2ccc(Cl)cc2)CCN(CCCC(=O)c2ccc(F)cc2)CC1	66	46	210	2200	1100	–	–
O=C(CCCCCCCCCCCCCCCCCCC(=O)OC1(c2ccc(Cl)cc2)CCN(CCCC(=O)c2ccc(F)cc2)CC1)OC1(c2ccc(Cl)cc2)CCN(CCCC(=O)c2ccc(F)cc2)CC1	25	27	82	160	1400	–	–
O=C(CCC(=O)N1CCC(O)(c2ccc(Cl)cc2)CC1)c1ccc(F)cc1	860	470	1700	18000	19000	–	–
O=C(CCc1cn(CCOCCOCCOCCn2cc(CCC(=O)OC3(c4ccc(Cl)cc4)CCN(CCCC(=O)c4ccc(F)cc4)CC3)nn2)nn1)OC1(c2ccc(Cl)cc2)CCN(CCCC(=O)c2ccc(F)cc2)CC1	1	3	9.8	41	120	–	–
O=C(CCC(=O)OC1(c2ccc(Cl)cc2)CCN(CCCC(=O)c2ccc(F)cc2)CC1)OC1(c2ccc(Cl)cc2)CCN(CCCC(=O)c2ccc(F)cc2)CC1	6.7	5.4	14	24	130	2	–
O=C(CCN1CCN(CCC(=O)OC2(c3ccc(Cl)cc3)CCN(CCCC(=O)c3ccc(F)cc3)CC2)CC1)OC1(c2ccc(Cl)cc2)CCN(CCCC(=O)c2ccc(F)cc2)CC1	2.5	1.1	9.5	33	360	–	–
CC(=O)OC1(c2ccc(Cl)cc2)CCN(CCCC(=O)c2ccc(F)cc2)CC1	4.5	4.5	56	9.3	59	–	8
O=C(CCCCCCCCCCCCCCC(=O)OC1(c2ccc(Cl)cc2)CCN(CCCC(=O)c2ccc(F)cc2)CC1)OC1(c2ccc(Cl)cc2)CCN(CCCC(=O)c2ccc(F)cc2)CC1	140	280	220	1400	6800	–	–
O=C(CCc1cn(CCCCCCCCn2cc(CCC(=O)OC3(c4ccc(Cl)cc4)CCN(CCCC(=O)c4ccc(F)cc4)CC3)nn2)nn1)OC1(c2ccc(Cl)cc2)CCN(CCCC(=O)c2ccc(F)cc2)CC1	1.3	1.6	1.8	19	49	–	–
O=C(CCc1cn(CCCCCCCCCCn2cc(CCC(=O)OC3(c4ccc(Cl)cc4)CCN(CCCC(=O)c4ccc(F)cc4)CC3)nn2)nn1)OC1(c2ccc(Cl)cc2)CCN(CCCC(=O)c2ccc(F)cc2)CC1	4.9	5.4	5.9	89	86	–	–
O=C(CCCCCCCCCCCCCCCCC(=O)OC1(c2ccc(Cl)cc2)CCN(CCCC(=O)c2ccc(F)cc2)CC1)OC1(c2ccc(Cl)cc2)CCN(CCCC(=O)c2ccc(F)cc2)CC1	160	150	380	570	930	–	–
CCC(=O)OC1(c2ccc(Cl)cc2)CCN(CCCC(=O)c2ccc(F)cc2)CC1	3.9	1.6	41	2.5	72	–	8

— ChEMBL document CHEMBL3352709, “Synthesis and binding profile of haloperidol-based bivalent ligands targeting dopamine D(2)-like receptors” (Bioorg Med Chem Lett, 2014)
